Entries after “also recorded” stand apart in the source; their conditions may differ. Like-named read-outs stand apart in the source and are kept apart here.
Assays:
[1] = mouse, in vivo, 64 mg/kg
Excerpt: (§1) Mice were euthanized 14 days after treatment with the drugs.

DM6-Mut cells = experiment: Direct effect on tumor target cells in vitro; format: cell-based, human; conditions: at the doses used
[2] = tested on: apoptotic cells (Jurkat cells); conditions: Jurkat cells treated with 10 μM Etoposide for 20 h; equimolar or titrating amounts
Description: Jurkat cells were treated with 10 μM Etoposide for 20 h to induce apoptosis. The cells were then stained with PSVue with equimolar or titrating molar amounts of ExoBlock. Sytox Red was used to eliminate dead cells from the analysis. The experiment was done in triplicate wells.

DM6-Mut tumor xenografts = conditions: for tumor escape / tumor growth: NSG mice bearing DM6-Mut xenografts treated with TKT cells, ExoBlock 64 mg/kg i.p., nivolumab 10 mg/kg
Excerpt: (A) Experimental scheme and timeline (B-C) Tumor burdens on respective days in the X-mouse model in anti-PD-1 experiment (B) or the IL-12 experiment (C).
The X mouse model was established to allow for the rapid generation of human tumors and an in vivo method of evaluation of the anti-tumor responses of patient-derived T cells to patient tumor-specific peptides expressed by the established tumors.
There are 7 different T cells derived for 3 different patients available for our studies (Table 1). […] The melanoma tumor target cells (DM6) are either transduced with a tandem mini-gene expressing GFP or with luciferase and each are genetically modified to express either the mutated peptide (DM6-Mut), tumor target or the wild type peptide (DM6-WT) control target. Tumor growth in the X mouse model is monitored either by post-mortem quantification of GFP fluorescence in the omentum or by quantification of luciferase-dependent bioluminescence of the mice by live imaging.
The X-mouse model was used to test the efficacy of ExoBlock. ExoBlock was injected i.p. into NSG mice bearing DM6-Mut tumor xenografts and treated with TKT cells.

[3] = tested on: tumor associated exosomes / T cells; experiment: Reversal of exosome-mediated arrest of T cell activation (CD3/CD28-activated PBL with exosomes)
Description: PBL were either unactivated (Unt) or activated for 2 h (hours) with immobilized antibodies to CD3 and CD28 with exosomes (Exo), exosomes with Zn-T-DPA and Exoblock (Exo+Zn-T-DPA and Exo+ExoBlock) or without (No Exo) exosomes. NFκB expression was detected using confocal microscopy.
T cells from normal donor peripheral blood leukocytes (NDPBL) were activated for 2 h with immobilized antibodies to CD3 and CD28 in the presence or absence of exosomes and 10 μM ExoBlock. The percentage of activation was determined by monitoring the upregulation of CD69. Percentage of inhibition and reversal were calculated.

[4] = Systemic organ toxicity study in mice; conditions: dose 64 mg/kg
Excerpt: as §1

Substance | avidity of PS binding (PS binding avidity) | histopathology of organs [1] | direct killing / suppression of tumor target cells (DM6-Mut cells) | competitive inhibition of PSVue 499 binding [2] | tumor escape / tumor growth (DM6-Mut tumor xenografts) | change in tumor burden (DM6-Mut tumor xenografts; day 25, 64 mg/kg i.p.) | interference with anti-tumor responses of tumor-specific T cells (DM6-Mut tumor xenografts; mouse model) | toxicities in pre-clinical efficacy studies (DM6-Mut tumor xenografts; mouse model) | batch consistency of reversal of immunosuppressive effect of exosomes ([3]; 10 μM ExoBlock, CD69 upregulation, NDPBL T cells) | blocking exosomal immune suppression in vitro ([3]; PBL activated 2 h with immobilized antibodies to CD3 and CD28 with exosomes) | reversal of the exosome-mediated arrest of T cell function ([3]; comparative studies, FIG. 2A-C) | systemic organ toxicity (NOAEL) [4] | tumor escape / tumor growth (DM6-Mut tumor xenografts; listed as anti-PD-1)
(ZnDPA)6-DP-15K [ExoBlock] | bind PS with a high avidity; also recorded: greater avidity to PS as compared to Zn-T-DPA | No pathology was observed | does not directly kill the tumor target cells; also recorded: no direct suppressive effect | competitively inhibits binding of PSVue 499 to apoptotic cells in a dose-dependent manner | significantly delayed tumor escape; also recorded: suppresses tumor growth and has comparable efficacy to anti-PD1 treatment | two-fold change in tumor burden | does not interfere with the anti-tumor responses of the tumor-specific T cells | no detectable toxicities | consistent in their ability to reverse immunosuppressive effect of exosomes | more effective than both anti-PS antibody and annexin V; also recorded: inhibits exosome-mediated arrest of T cell activation | 75-96% | NOAEL was observed | 
nivolumab [reference compound] |  |  |  |  | enhanced the tumor suppression and delayed, but did not prevent tumor recurrence |  |  |  |  |  |  |  | delay tumor escape

Reference: patent US20220305025A1, “PHOSPHATIDYLSERINE BINDING MOLECULES BLOCK IMMUNE SUPPRESSION OF TUMOR ASSOCIATED EXOSOMES” (priority 2019, published 2022)
